Measurements reported in patent publication US7332615B2, “Hydrophilic analogs of 4,8-dihydrobenzodithiophene-4,8-diones as anticancer agents” (Industrial Technology Research Institute, priority 2004, dated 2008).
Counter-ions that a name gives are not always drawn. Like-named read-outs stand apart in the source and are kept apart here.

How the values were obtained:
Water solubility = type: physicochemical; conditions: in H2O; for solubility: water
[1] = tested on: p-gp-expressing epidermoid carcinoma of the nasopharynx (KB-VIN); assay: Cytotoxicity Assays Method C, KB-VIN; type: cell-based; conditions: for IC50: 50% reduction in cell number after 72 hr of incubation
Text: Cytotoxicity Assays Method C (KB, KB-VIN, AS49, HCT-8, PC-3) [K. H. Lee et. al. Planta Med. 54, 308-312 (1998), Monk A et. al. J. Natl. Cancer Inst. 83, 757-766 (1991).] The cell lines included epidermoid caninoma of the nasopharynx (KB), p-gp-expressing epidermoid caninoma of the nasopharynx (KB-VIN), lung carcinoma (A-549), ileocecal carinoma (HCT-8) and prostate cancer (PC-3) cell lines.

lung carcinoma (A-549) = assay: Cytotoxicity Assays Method C, A-549; type: cell-based; conditions: read-out: IC50 A549
[2] = tested on: epidermoid carcinoma of the nasopharynx (KB); assay: Cytotoxicity Assays Method C, KB; type: cell-based; conditions: read-out: IC50 KB
[3] = tested on: ileocecal carcinoma (HCT-8); assay: Cytotoxicity Assays Method C, HCT-8; type: cell-based; conditions: read-out: IC50 HCT-8
prostate cancer (PC-3) = assay: Cytotoxicity Assays Method C, PC-3; type: cell-based; conditions: for IC50: read-out: IC50 PC-3
[4] = tested on: Human promyeloid leukemia HL-60 cells; assay: Cytotoxicity Assays Method B (MTT proliferation assay), HL-60; type: cell-based; conditions: Homo sapiens, read-out: IC50 (concentration at which 50% of the cells are inhibited from growing)
Procedure: Cytotoxicity Assays Method B (HL-60) [H. M. Chen et al. Chin. Pharm. J. 53, 157-167 (2001)]
Human promyeloid leukemia HL-60 cells were obtained from the American Type
Culture Collection (Manassas, Va., USA) and the Culture Collection and Research Center(CCRC) (Tai wan, ROC). Human promyeloid leukemia HL-60 cells were cultured in suspension in RPMI-1640 medium (GIBCO, Grand Is land, USA), containing 10% fetal bovine se rum (GIBCO, Grand Is land, USA), 100 unit/mL penicillin, […] streptomycin and 1% L-glutamine at 37° C. in a humidified atmosphere of 5% CO2 in air. Cells were split every day to maintain the cell numbers between 2−5×10^5/mL. Cell numbers were assessed by the standard procedure of leukocyte counting using a hemocytometer and cell viability was checked by the ability of cells to exclude Trypan blue.
Cellular proliferation was determined by the MTT [3-(4,5-dimethylthiazol-2-yl)-2,5-diphenyltetrazolium bromide] as say. Briefly, […] of MTT (5 mg/mL) was added to each well of 96-well plates containing 1×10^5 cells after treatment with different concentrations of samples for 4 days. The reaction was stopped after 2 h by adding […] of 0.04 N HCl in isopropanol and the OD570 nm was determined by a minicolorimetric reader. Each concentration treatment was performed in triplicate.

[5] = A549, 50% reduction in cell number after 72 hr of incubation
[6] = KB, 50% reduction in cell number after 72 hr of incubation
[7] = Homo sapiens, HCT-8, 72 h, HCT-8, 50% reduction in cell number after 72 hr of incubation
[8] = 72 h, PC-3, 50% reduction in cell number after 72 hr of incubation
[9] = Homo sapiens, A549, 72 h, A549, 50% reduction in cell number after 72 hr of incubation
[10] = 72 h, KB, 50% reduction in cell number after 72 hr of incubation
[11] = HCT-8, 50% reduction in cell number after 72 hr of incubation
[12] = PC-3, 50% reduction in cell number after 72 hr of incubation

SMILES	IC50 [1] [µM]	IC50 (lung carcinoma (A-549); [5]) [µM]	IC50 [3, 7] [µM]	IC50 (prostate cancer (PC-3); [8]) [µM]	IC50 (lung carcinoma (A-549); [9]) [µM]	solubility (Water solubility) [mg/mL]	IC50 [2, 10] [µM]	also measured
CC(O)c1cc2c(s1)C(=O)c1sccc1C2=O (stereo not drawn) [Compound 1b, reference compound]	–	–	–	–	–	–	–	Solubility (water solubility) (Water solubility): 9.6 × 10^−3 mg/1 mL H2O
COc1cccc2c1C(=O)c1c(O)c3c(c(O)c1C2=O)C[C@@](O)(C(=O)CO)C[C@@H]3O[C@H]1C[C@H](N)[C@H](O)[C@H](C)O1 [Doxorubincin, reference compound]	4.97	0.18	–	–	–	–	–	IC50 [2, 6]: 0.18 µM
O=C([O-])CCC(=O)OCc1cc2c(s1)C(=O)c1sccc1C2=O.[Na+] [IIa-1-Na, Sodium mono-[1-(4,8-dioxo-4,8-dihydrobenzo[1,2-b:5,4-b′]dithiophen-2-yl)-methyl]succinate]	3.79	–	3.25	1.22	3.79	≥ 10	2.09	–
O=C([O-])CCCC(=O)OCc1cc2c(s1)C(=O)c1sccc1C2=O.[Na+] [IIa-2-Na, Sodium mono-[1-(4,8-dioxo-4,8-dihydrobenzo[1,2-b:5,4-b′]dithiophen-2-yl)methyl]pentanedioate]	1.31	–	0.65	0.89	0.94	≥ 1.8	1.72	–
CC(OC(=O)CCC(=O)[O-])c1cc2c(s1)C(=O)c1sccc1C2=O.[Na+] (stereo not drawn) [IIb-1-Na, Sodium mono-[1-(4,8-dioxo-4,8-dihydroxybenzo-[1,2-b;5,4-b′]dithiophen-2-yl)-ethyl]succinate]	0.47	–	1.83	0.37	0.47	≥ 3	0.55	–
CC(OC(=O)CCCC(=O)O)c1cc2c(s1)C(=O)c1sccc1C2=O (stereo not drawn) [IIb-2, Mono-[1-(4,8-dioxo-4,8-dihydrobenzo[1,2-b:5,4-b′]dithiophen-2-yl)-ethyl]pentanedioate]	0.05	–	–	–	–	–	–	IC50 ([3]; Homo sapiens, HCT-8, 72 h): 0.19 µM; IC50 (prostate cancer (PC-3); 72 h): 0.06 µM; activity against the androgen-insensitive prostate cancer cell line PC-3 (in words) (prostate cancer (PC-3); PC-3, summary of Table 3): potent activity; activity against the MDR cell line KB-VIN (in words) ([1]; summary of Table 3): potent activity; IC50 (lung carcinoma (A-549); Homo sapiens, A549, 72 h): 0.11 µM; IC50 ([4]; HL-60, 96 h): 0.25 µM; IC50 ([2]; 72 h): 0.03 µM
CC(OC(=O)CCCC(=O)[O-])c1cc2c(s1)C(=O)c1sccc1C2=O.[Na+] (stereo not drawn) [IIb-2-Na, Sodium mono-[1-(4,8-dioxo-4,8-dihydroxybenzo[1,2-b;5,4-b′]dithiophen-2-yl)-ethyl]pentanedioate]	1.13	–	1.89	0.88	1.89	≥ 9.6	1.36	–
O=C(O)COCc1cc2c(s1)C(=O)c1sccc1C2=O [IVa, 4,8-dioxo-4,8-dihydroxybenzo[1,2-b:5,4-b′]-dithiophen-2-yl-methoxy acetic acid]	–	–	2.07	1.05	2.46	–	3.61	IC50 ([1]; Homo sapiens, KBVIN, 72 h): 2.46 µM
O=C([O-])COCc1cc2c(s1)C(=O)c1sccc1C2=O.[Na+] [IVa-Na, Sodium 4,8-dioxo-4,8-dihydroxybenzo[1,2-b:5,4-b′]-dithiophen-2-yl-methoxy acetate]	–	–	–	–	–	≥ 9.6	–	–
CC(OCC(=O)[O-])c1cc2c(s1)C(=O)c1sccc1C2=O.[Na+] (stereo not drawn) [IVb-Na, Sodium 1-(4,8-dioxo-4,8-dihydroxybenzo[1,2-b:5,4b′]-dithiophen-2-yl-ethoxy)-acetate]	–	–	–	–	–	≥ 3.2	–	–
CC(OCC(=O)[O-])c1cc2c(s1)C(=O)c1ccsc1C2=O.[Na+] (stereo not drawn) [IX-Na, Sodium 1-(4,8-dioxo-4,8-dihydroxybenzo[1,2-b:4,5-b′]-dithiophen-2-yl-ethoxy)-acetate]	1	0.26	–	–	–	≥ 6	–	IC50 [3, 11]: 0.22 µM; IC50 (prostate cancer (PC-3); [12]): 0.14 µM; IC50 [2, 6]: 1.11 µM
CC[C@]1(O)C[C@H]2CN(CCc3c([nH]c4ccccc34)[C@@](C(=O)OC)(c3cc4c(cc3OC)N(C=O)[C@H]3[C@@](O)(C(=O)OC)[C@H](OC(C)=O)[C@]5(CC)C=CCN6CC[C@]43[C@@H]65)C2)C1 [VCR, reference compound]	5.33	0.04	–	–	–	–	–	IC50 [2, 6]: 0.01 µM
CC(OC(=O)CCC(=O)[O-])c1cc2c(s1)C(=O)c1ccsc1C2=O.[Na+] (stereo not drawn) [VII-1-Na, Sodium mono-[1-(4,8-dioxo-4,8-dihydroxybenzo-[1,2-b;4,5-b′]dithiophen-2-yl)-ethyl]succinate]	1.96	–	1.44	0.73	2.22	≥ 10	2.14	–
CC(OC(=O)CCCC(=O)[O-])c1cc2c(s1)C(=O)c1ccsc1C2=O.[Na+] (stereo not drawn) [VII-2-Na, Sodium mono-[1-(4,8-dioxo-4,8-dihydroxybenzo[1,2-b;4,5-b′]dithiophen-2-yl)-ethyl]pentanedioate]	0.68	–	0.88	0.1	2.52	≥ 3.4	0.45	–
COc1cc([C@@H]2c3cc4c(cc3[C@@H](O[C@@H]3O[C@@H]5CO[C@@H](C)O[C@H]5[C@H](O)[C@H]3O)[C@H]3COC(=O)[C@H]23)OCO4)cc(OC)c1O [VP-16, reference compound]	> 10	1.36	–	–	–	–	–	IC50 [2, 6]: 4.76 µM
O=C(O)c1cc2c(s1)C(=O)c1sccc1C2=O [XI, 4,8-dioxo-4,8-dihydrobenzo-[1,2-b;5,4-b′]dithiophene-2-carboxylic acid]	–	30.3	37.2	–	–	–	38.3	IC50 (prostate cancer (PC-3); [12]): 13.4 µM; IC50 ([1]; Homo sapiens, KBVIN, 72 h): 38.3 µM
O=C(O)c1cc2c(s1)C(=O)c1sccc1C2=O [XI-NH4, Ammonium 4,8-dioxo-4,8-dihydrobenzo-[1,2-b:5,4-b′]dithiophene-2-carboxylate]	36	> 70	–	–	–	≥ 10	–	IC50 [3, 11]: > 70 µM; IC50 (prostate cancer (PC-3); [12]): > 70 µM; IC50 [2, 6]: 36 µM
O=C([O][Na+])c1cc2c(s1)C(=O)c1sccc1C2=O [XI-Na, Sodium 4,8-dioxo-4,8-dihydrobenzo-[1,2-b:5,4-b′]dithiophene-2 carboxylate]	–	–	–	–	–	≥ 10	–	–
C[C@H](NC(=O)c1cc2c(s1)C(=O)c1sccc1C2=O)C(=O)[O-].[Na+] [XIII-Na, Sodium (L)-2-{(4,8-dioxo-4,8-dihydrobenzo-[1,2-b;5,4-b′]dithiophene-2-carbonyl)-amino}-propionate]	–	–	–	–	–	≥ 6.6	–	–
O=C(O)c1cc2c(s1)C(=O)c1ccsc1C2=O [XIV, 4,8-dioxo-4,8-dihydrobenzo-[1,2-b;4,5-b′]dithiophene-2-carboxylic acid]	–	44.4	44.1	25.3	–	–	38.3	IC50 ([1]; Homo sapiens, KBVIN, 72 h): 38.3 µM
O=C(O)c1cc2c(s1)C(=O)c1ccsc1C2=O [XIV-NH4, Ammonium 4,8-dioxo-4,8-dihydrobenzo-[1,2-b;4,5-b′]dithiophene-2-carboxylate]	36	16.2	–	–	–	4	–	IC50 [3, 11]: 26.3 µM; IC50 (prostate cancer (PC-3); [12]): 13.3 µM; IC50 [2, 6]: 36 µM
C[C@H](NC(=O)c1cc2c(s1)C(=O)c1ccsc1C2=O)C(=O)O [XVI, (L)-2-{(4,8-Dioxo-4,8-dihydrobenzo-[1,2-b;4,5-b′]dithiophene-2-carbonyl)-amino}-propionic acid]	–	–	–	–	–	–	–	IC50 ([4]; 96 h, HL-60, MTT, treatment for 4 days): 0.75 µM
C[C@H](NC(=O)c1cc2c(s1)C(=O)c1ccsc1C2=O)C(=O)[O-].[Na+] [XVI-Na]	–	–	0.51	0.17	0.54	≥ 3.2	1.76	IC50 ([1]; Homo sapiens, KBVIN, 72 h): 0.54 µM
CN(C)CCNC(=O)c1cc2c(s1)C(=O)c1sccc1C2=O [XVII-H3PO4, 4,8dioxo-4,8-dihydrobenzo[1,2-b;5,4-b′]dithiophene-2-carboxylate-(2-dimethyl-aminoethyl)-amide phosphoric acid salt]	–	–	–	–	–	≥ 2	–	–
